Laboratory results published in publication PMC13046583, “SRS143 a semi-synthetic analogue of andrographolide against house dust mite induced allergic asthma” (Naunyn-Schmiedeberg's Archives of Pharmacology, 2025).
“Also recorded” adds a separate entry of the source.

Legend:
RBL-2H3 cells [1] = test: β-hexosaminidase release assay, calcium ionophore A23187 stimulation; assay type: cell-based
Protocol: (§1) The inhibitory activity of SRS143 and quercetin against the release of β-hexosaminidase from RBL-2H3 cells was evaluated according to the method reported previously (Lin et al. [2020]). Briefly, the cells were cultured in a 24-well cell culture plate (9 × 10^5/well, Becton–Dickinson Co., Franklin Lakes, NJ) with concentration ([…]) of mouse monoclonal anti-dinitrophenyl (DNP) IgE. After washing with PBS, SRS143 at various concentrations (0, 0.1, 1 and 10 μM)) or quercetin (30 μM) was added. After 60 min of incubation, DNP-labeled bovine serum albumin (DNP-labeled BSA, 50 ng/ml final concentration) was added, followed by 45 min of incubation. The supernatant (50 μl) was mixed with 100 μl of a 0.1 M citrate buffer (pH 4.5) containing 1 mM […] and the mixture was incubated in a 96-well plate at 37 °C for 60 min. For the calcium ionophore stimulation method, CaI A23187 was added at 5 µM to induce degranulation. Each well was replaced with 0.4 mL of MEM media and 100 µL of MTT solution to evaluate cell viability using MTT assay. Supernatants from CaI A23187-induced degranulated cells were collected, centrifuged, and reacted with PNAG in citrate buffer at 37℃ for 1 h. The reaction was stopped, and absorbance at 405 nm was measured using a microplate reader (Versamax).to assess beta-hexosaminidase activity, indicating enzyme subproduct levels. The results are expressed as percentage release of β-hexosaminidase activity amount by antigen (DNP-labeled BSA) alone.
(§2) Mast cell degranulation is the key process in allergic asthma. To induce mast cell degranulation process in RBL-2H3 cells, the cells were sensitized and challenged with DNP-labelled specific antigen IgE. Alternatively, the mast cells were induced with calcium ionophore A23187 to trigger direct degranulation independent of activation of IgE. The release was assessed with β-hexosaminidase assay whereby the amount β-hexosaminidase enzyme released correlates to histamine release by RBL-2H3 cells. In the preliminary screening, single low dose of 10 µM of AGP and its derivatives were applied to the calcium ionophore activated cells for a short duration of 1 h. Quercetin as positive control was also applied at a higher dose of 50 µM. For cell viability assay, the cells were washed and replenished with fresh medium supplemented with 15% FBS after 1 h of treatment. The cell viability was measured at 24 h. […] Given close to eightfold improved potency in inhibition of mast degranulation (Fig. 4A, B and C). We further measured the efficacy of SRS143 in a dose response study involving both efficacy and toxicity.

RBL-2H3 cells [2] = test: β-hexosaminidase release assay, IgE-FcεRI (DNP-IgE/DNP-BSA) stimulation; assay type: cell-based
Protocol: The inhibitory activity of SRS143 and quercetin against the release of β-hexosaminidase from RBL-2H3 cells was evaluated according to the method reported previously (Lin et al. [2020]). Briefly, the cells were cultured in a 24-well cell culture plate (9 × 10^5/well, Becton–Dickinson Co., Franklin Lakes, NJ) with concentration ([…]) of mouse monoclonal anti-dinitrophenyl (DNP) IgE. After washing with PBS, SRS143 at various concentrations (0, 0.1, 1 and 10 μM)) or quercetin (30 μM) was added. After 60 min of incubation, DNP-labeled bovine serum albumin (DNP-labeled BSA, 50 ng/ml final concentration) was added, followed by 45 min of incubation. […] The reaction was stopped, and absorbance at 405 nm was measured using a microplate reader (Versamax).to assess beta-hexosaminidase activity, indicating enzyme subproduct levels. The results are expressed as percentage release of β-hexosaminidase activity amount by antigen (DNP-labeled BSA) alone.
Mast cell degranulation is the key process in allergic asthma. […] The release was assessed with β-hexosaminidase assay whereby the amount β-hexosaminidase enzyme released correlates to histamine release by RBL-2H3 cells. […] The cell viability was measured at 24 h. […] We further measured the efficacy of SRS143 in a dose response study involving both efficacy and toxicity.

[3] = Cell viability (MTT) assay; assay type: cell-based; details: rat, RBL-2H3 cells, 1 h treatment, washed, viability measured at 24 h
Protocol: (§3) RBL-2H3 cells were maintained in Minimum Essential Media (MEM, ThermoFischer, Grand Island, NY), supplemented with 15% heat-inactivated FBS, 100 U/mL of penicillin and 100 µg/mL of streptomycin. The cytotoxicity effect of the SRS143 was carried out using the rapid colorimetric assay that measures the activity of mitochondrial dehydrogenase in living cells, which convert the pale yellow soluble tetrazolium salt MTT into a insoluble purple end product formazan.
as §1, §2

[4] = system: HDM-induced asthmatic BALB/c mice; test: House dust mite allergic asthma mouse model, BAL fluid total and differential cell counts; assay type: in vivo; details: day 7-11, n = 6; for BAL fluid airway infiltration of all inflammatory leukocytes: 1 mg/kg i.p., positive control
Protocol: (§4) BALB/c mice of 6–8 weeks of age were housed in the animal experimentation unit, Faculty of Medicine and Health Sciences, Universiti Putra Malaysia (UPM). Mice were kept in individually vented cages (1820 cm^3, not more than 6 mice per cage) with a bed of poplar shaving and free access to clean water and food. Mice were grouped into 8 groups of 6 mice per group – Group 1: Normal control, Group 2: HDM, Group 3: Vehicle (6% DMSO), Group 4: SRS143 (0.3 mg/kg), Group 5: SRS143 (1 mg/kg), Group 6: SRS143 (3 mg/kg), Group 7: dexamethasone (1 mg/kg), Group 8: andrographolide (1 mg/kg). Throughout the study, both experimental and control mice were kept under appropriate conditions (22 ± 2 °C temperature, and 55 ± 10% relative humidity). The mice were maintained under a 12-h light-darkness cycle.
Allergic asthma was induced using house dust mite (Dermatophagoides pteronyssinus, Lot Number: 253983, Greer Laboratories, Lenoir, USA). The HDM was dissolved and prepared to a concentration of 5000 µg/mL in PBS, and then it was aliquoted and frozen (−20 °C) for further use. A 14-day HDM model was used to induce asthma in Balb/c mice (Lim et al. [2016]). The animals were sub-anesthetized using a cocktail of ketamine (50 mg/kg) and xylazine (3.3 mg/kg) for the intranasal HDM sensitization and challenged protocol. Briefly, the induction involved initial intranasal administration of 100 μg HDM extract (10 μL per nostril) on day 0, and subsequent administration of 10 μg of HDM (10 μL per nostril) on day 7—11. Mice were treated with SRS143 at doses of 0.3, 1, or 3 mg/kg, or with dexamethasone (1 mg/kg) or andrographolide (1 mg/kg). All treatments were administered at a constant volume of 10 mL/kg. Bronchoalveolar lavage (BAL) fluid collection was conducted on day 14.
Fig. 3 HDM-asthma induction protocol. Animals were intranasally (i.n.) sensitized using 100 μg of house dust mite (HDM) on day 0, this was followed by daily HDM intranasal challenge (10 μg) on day 7 −11. […]
BAL fluid total and differential cell counts were determined as described (Matsuda et al. [1994]).

RBL-2H3 cells [5] = test: Cell viability (MTT) assay; assay type: cell-based
Protocol: as §3, §1, §2

Akt phosphorylation = test: Immunoblotting of Akt phosphorylation in IgE-FcεRI activated mast cells; assay type: cell-based; details: IgE-FcεRI activated RBL-2H3 cells, 0.1, 1 and 10 µM, n = 3
Protocol: Nuclear proteins of RBL-2H3 cells (10 µg per lane) were separated by 10% SDS-PAGE and immunoblots were developed as described (Matsuda et al. [1994]). Immunoblots were probed with anti-AKT and anti-β-actin antibodies (all from Cell Signalling Technology, Beverly, MA).

[6] = system: HDM-induced asthmatic BALB/c mice; test: House dust mite allergic asthma mouse model, lung histology (H&E, PAS); assay type: in vivo
Protocol: as §4
(§5) Allergic asthma was induced using house dust mite (Dermatophagoides pteronyssinus, Lot Number: 253983, Greer Laboratories, Lenoir, USA). The HDM was dissolved and prepared to a concentration of 5000 µg/mL in PBS, and then it was aliquoted and frozen (−20 °C) for further use. […]
Isolated lungs were fixed in 10% neutral formalin and processed. […] (5 µm) were stained with H&E for inflammatory cell infiltration and Periodic Acid Schiff […] stain (PAS) for mucus production. Quantitative analysis under a light microscope was then performed. […]

[7] = system: HDM-induced asthmatic BALB/c mice; test: House dust mite allergic asthma mouse model, airway hyperresponsiveness to methacholine; assay type: in vivo; details: methacholine 2-32 mg/ml, n = 6
Protocol: as §4
as §5, with “use. A 14-day HDM model was used to induce asthma in Balb/c mice (Lim et al. [2016]). The animals were sub-anesthetized using a cocktail of ketamine (50 mg/kg) and xylazine (3.3 mg/kg) for the intranasal HDM sensitization and challenged protocol.” for “use.”

[8] = Rattus norvegicus, 10 µM, 1 h, calcium ionophore A23187 activated RBL-2H3 cells, read-out: Inhibition of β-Hexosaminidase Enzyme Release (%)

C=C1CC[C@@H]2[C@](C)(CO)[C@H](O)CC[C@@]2(C)[C@@H]1C/C=C1/C(=O)OC[C@H]1O [AGP, andrographolide]
Inhibition of β-Hexosaminidase Enzyme Release (%) (RBL-2H3 cells [1]; 10 µM, 1 h, calcium ionophore A23187 activated RBL-2H3 cells): low percentage inhibition level | inhibition at 10 µM (RBL-2H3 cells [1]; [8]): 11.1 ± 5.7% | In vitro antihistamine activity (RBL-2H3 cells [1]; calcium ionophore activated RBL-2h3 cells): did not show any in vitro antihistamine activity | In vitro antihistamine activity (RBL-2H3 cells [2]; DNP-IgE activated RBL-2h3 cells): did not show any in vitro antihistamine activity | viability at 1 h, 10 µM [3]: 81.3% | BAL fluid airway infiltration of all inflammatory leukocytes [4]: showed inhibition

O=c1c(O)c(-c2ccc(O)c(O)c2)oc2cc(O)cc(O)c12 [Quercetin, quercetin, reference compound]
inhibition at 50 µM (RBL-2H3 cells [1]; Rattus norvegicus, 50 µM, 1 h, calcium ionophore A23187 activated RBL-2H3 cells, read-out: Inhibition of β-Hexosaminidase Enzyme Release (%)): 78.8 ± 8.5% | viability at 1 h, 50 µM ([3]; 50 µM): 106%

C[C@@H]1C[C@H]2[C@@H]3CCC4=CC(=O)C=C[C@]4(C)[C@@]3(F)[C@@H](O)C[C@]2(C)[C@@]1(O)C(=O)CO [Dexamethasone, dexamethasone, reference compound]
BAL fluid airway infiltration of all inflammatory leukocytes [4]: showed inhibition

C=C1CCC2C(C)(CO)C(O)CCC2(C)C1C=CC1=CCOC1=O (centres unmarked) [DDAG, 14-deoxy-11,12-didehydroandrographolide]
Viability of RBL-2H3 Cells (%) (RBL-2H3 cells [5]; 10 µM, 1 h treatment, washed, viability measured at 24 h): 99.6%

C=C1CCC2C3(C)COC(c4ccccc4)OC3CCC2(C)C1C/C=C1/C(=O)OCC1OC(C)=O (centres unmarked) [SRS143, 3,19-Benzylidene-14-acetylandrographolide]
Improved potency in inhibition of mast degranulation (RBL-2H3 cells [1]; 10 µM screening, the comparator is not given, presumably AGP): eightfold | inhibition at 30 µM (RBL-2H3 cells [1]; Rattus norvegicus, RBL-2H3, 30 µM, 1 h, dose-response study (Fig. 4B), read-out: Inhibition of enzyme release): ~97% | IC50 (RBL-2H3 cells [1]; Rattus norvegicus, RBL-2H3, calcium ionophore A23187 stimulation, 1 h (Fig. 4B), read-out: IC50, inhibition of β-hexosaminidase release): 6.5 µM | inhibition at 10 µM (RBL-2H3 cells [1]; [8]): 85.2 ± 3.1% | IC50 (RBL-2H3 cells [2]; Rattus norvegicus, RBL-2H3, IgE-FceRI stimulation, 1 h (Fig. 4C), 50% mark on concentration axis, read-out: IC50, inhibition of β-hexosaminidase release): 6.5 µM | viability at 1 h, 10 µM [3]: 107% | Cytotoxicity on RBL-2H3 cells (RBL-2H3 cells [5]; 1 h, 24 h, and 24 h after washing at 1 h): only toxic if applied at the highest concentration of 100 µM | Levels of phosphorylated-Akt (Akt phosphorylation): decrease significantly at the highest dose of 10 μM | BAL fluid total cells, macrophage, neutrophil, eosinophil and lymphocyte infiltration ([4]; 0.3, 1, 3 mg/kg i.p. 2 h before HDM challenge, vs HDM group): significant reduction; also recorded: dose-dependently reduced | Peribronchial and perivascular inflammatory cellular infiltration in lung sections (H&E) ([6]; 0.3, 1, 3 mg/kg i.p., day 7-11): dose-dependently decreased | PAS-positive cells score (mucus, goblet metaplasia) ([6]; SRS143 i.p., HDM sensitized and challenged mice): between mild to no observable goblet metaplasia | Airway resistance (RI) in response to methacholine ([7]; 1 and 3 mg/kg i.p.): remarkable decrease | Dynamic compliance (Cdyn) in response to methacholine ([7]; SRS143 i.p.): no significant changes
